From PubChem BioAssay AID2060510 (Molecular Pharmacology Branch, DTP, NCI, 2025)
Values belong to the molecule of their own block, whether it stands above or below them.

Tested on: 439559-082-T-J2-PDC spheroids viability
Experiment: Anticancer human tumor 439559-082-T-J2-PDC patient-derived colon adenocarcinoma cell line growth inhibition [GQUAD]
Conditions: for IC50: curve of first compound; for viability, T/C: stronger effect = lower value
How it was run: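 Viability of tumor cells grown as complex spheroids with endothelial and stromal cells, exposed to drug combinations. Top concentration at or near clinical Cmax (else 10 microM), diluted in half-log increments.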

[1] = second compound 0.0316 µM, first compound 0.0316 µM
[2] = second compound 0.0316 µM, first compound 0.316 µM
[3] = second compound 0.1 µM, first compound 0.0316 µM
[4] = second compound 0.1 µM, first compound 0.316 µM
[5] = second compound 0.316 µM, first compound 0.0316 µM
[6] = second compound 0.316 µM, first compound 0.316 µM
[7] = second compound 1 µM, first compound 0.0316 µM
[8] = second compound 1 µM, first compound 0.316 µM
[9] = second compound 3.16 µM, first compound 0.0316 µM
[10] = second compound 3.16 µM, first compound 0.316 µM
[11] = second compound 10 µM, first compound 0.0316 µM
[12] = second compound 10 µM, first compound 0.316 µM
[13] = second compound 0.0316 µM, first compound 0.1 µM
[14] = second compound 0.0316 µM, first compound 1 µM
[15] = second compound 0.0316 µM, first compound 3.16 µM
[16] = second compound 0.0316 µM, first compound 10 µM
[17] = second compound 0.1 µM, first compound 0.1 µM
[18] = second compound 0.1 µM, first compound 1 µM
[19] = second compound 0.1 µM, first compound 3.16 µM
[20] = second compound 0.1 µM, first compound 10 µM
[21] = second compound 0.316 µM, first compound 0.1 µM
[22] = second compound 0.316 µM, first compound 1 µM
[23] = second compound 0.316 µM, first compound 3.16 µM
[24] = second compound 0.316 µM, first compound 10 µM
[25] = second compound 1 µM, first compound 0.1 µM
[26] = second compound 1 µM, first compound 1 µM
[27] = second compound 1 µM, first compound 3.16 µM
[28] = second compound 1 µM, first compound 10 µM
[29] = second compound 3.16 µM, first compound 0.1 µM
[30] = second compound 3.16 µM, first compound 1 µM
[31] = second compound 3.16 µM, first compound 3.16 µM
[32] = second compound 3.16 µM, first compound 10 µM
[33] = second compound 10 µM, first compound 0.1 µM
[34] = second compound 10 µM, first compound 1 µM
[35] = second compound 10 µM, first compound 3.16 µM
[36] = second compound 10 µM, first compound 10 µM
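Further: spheroids exposed to the agents for 7 days before readout.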
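Wherever viability, T/C is given: percent of luminescence signal in DMSO vehicle wells taken as 100% viability.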

Structure (SMILES): CCc1c2c(nc3ccc(O)cc13)-c1cc3c(c(=O)n1C2)COC(=O)[C@]3(O)CC + CN(C)c1ccc(Nc2c3ccc(NC(=O)CCN4CCCC4)cc3nc3cc(NC(=O)CCN4CCCC4)ccc23)cc1
- IC50 (second compound 0.0316 µM): 163 nM
- IC50 (second compound 0.1 µM): 181 nM
- IC50 (second compound 0.316 µM): 207 nM
- IC50 (second compound 1 µM): 179 nM
- IC50 (second compound 3.16 µM): 196 nM
- IC50 (second compound 10 µM): 195 nM
- viability, T/C (second compound 0.0316 µM, first compound 0.000999 µM): 99.7%
- viability, T/C (second compound 0.0316 µM, first compound 0.00316 µM): 88.5%
- viability, T/C (second compound 0.0316 µM, first compound 0.00999 µM): 72.7%
- viability, T/C [1]: 70.1%
- viability, T/C (second compound 0.0316 µM, first compound 0.0999 µM): 52.5%
- viability, T/C [2]: 43.8%
- viability, T/C (second compound 0.1 µM, first compound 0.000999 µM): 110%
- viability, T/C (second compound 0.1 µM, first compound 0.00316 µM): 91%
- viability, T/C (second compound 0.1 µM, first compound 0.00999 µM): 82.1%
- viability, T/C [3]: 72.6%
- viability, T/C (second compound 0.1 µM, first compound 0.0999 µM): 56.6%
- viability, T/C [4]: 42.9%
- viability, T/C (second compound 0.316 µM, first compound 0.000999 µM): 104%
- viability, T/C (second compound 0.316 µM, first compound 0.00316 µM): 93.6%
- viability, T/C (second compound 0.316 µM, first compound 0.00999 µM): 77.1%
- viability, T/C [5]: 70.5%
- viability, T/C (second compound 0.316 µM, first compound 0.0999 µM): 67.7%
- viability, T/C [6]: 40.3%
- viability, T/C (second compound 1 µM, first compound 0.000999 µM): 93.3%
- viability, T/C (second compound 1 µM, first compound 0.00316 µM): 85.7%
- viability, T/C (second compound 1 µM, first compound 0.00999 µM): 85.8%
- viability, T/C [7]: 69.3%
- viability, T/C (second compound 1 µM, first compound 0.0999 µM): 56.8%
- viability, T/C [8]: 43.9%
- viability, T/C (second compound 3.16 µM, first compound 0.000999 µM): 100%
- viability, T/C (second compound 3.16 µM, first compound 0.00316 µM): 90%
- viability, T/C (second compound 3.16 µM, first compound 0.00999 µM): 76.6%
- viability, T/C [9]: 64.2%
- viability, T/C (second compound 3.16 µM, first compound 0.0999 µM): 61.5%
- viability, T/C [10]: 43.2%
- viability, T/C (second compound 10 µM, first compound 0.000999 µM): 106%
- viability, T/C (second compound 10 µM, first compound 0.00316 µM): 79%
- viability, T/C (second compound 10 µM, first compound 0.00999 µM): 80.8%
- viability, T/C [11]: 75.4%
- viability, T/C (second compound 10 µM, first compound 0.0999 µM): 59.6%
- viability, T/C [12]: 41.7%

- IC50 (second compound 0.0316 µM): 1680 nM
- IC50 (second compound 0.1 µM): 1760 nM
- IC50 (second compound 0.316 µM): 1460 nM
- IC50 (second compound 1 µM): 1180 nM
- IC50 (second compound 3.16 µM): 1020 nM
- IC50 (second compound 10 µM): 418 nM
Structure (SMILES): CC(C)(O)C1CCC(Nc2ccc3ncc(-c4cccc(C(F)(F)F)c4)n3n2)CC1 (stereo unspecified) + Cc1cnc(CNC(=O)c2c(=O)c3ccc(N4CCCN(C)CC4)nc3n3c2sc2ccccc23)cn1
- viability, T/C [1]: 95.8%
- viability, T/C [13]: 96.9%
- viability, T/C [2]: 102%
- viability, T/C [14]: 77.2%
- viability, T/C [15]: 14.2%
- viability, T/C [16]: 19.1%
- viability, T/C [3]: 94.4%
- viability, T/C [17]: 91.4%
- viability, T/C [4]: 98.1%
- viability, T/C [18]: 78.8%
- viability, T/C [19]: 19.9%
- viability, T/C [20]: 9.57%
- viability, T/C [5]: 84.9%
- viability, T/C [21]: 86.8%
- viability, T/C [6]: 71.3%
- viability, T/C [22]: 67%
- viability, T/C [23]: 15.5%
- viability, T/C [24]: 14.1%
- viability, T/C [7]: 84.5%
- viability, T/C [25]: 72.5%
- viability, T/C [8]: 74.5%
- viability, T/C [26]: 56.2%
- viability, T/C [27]: 11.7%
- viability, T/C [28]: 12.7%
- viability, T/C [9]: 72.4%
- viability, T/C [29]: 72.3%
- viability, T/C [10]: 61%
- viability, T/C [30]: 51.2%
- viability, T/C [31]: 0.28%
- viability, T/C [32]: 0.21%
- viability, T/C [11]: 63.3%
- viability, T/C [33]: 56.9%
- viability, T/C [12]: 57.8%
- viability, T/C [34]: 25.3%
- viability, T/C [35]: 0.24%
- viability, T/C [36]: 0.26%

Structure (SMILES): CC1COCCN1c1cc(C2(S(C)(=N)=O)CC2)nc(-c2ccnc3[nH]ccc23)n1 (stereo unspecified) + Cc1[nH]c2ccc(F)cc2c1-c1nc2c3cccnc3c3ncccc3c2[nH]1
- IC50 (second compound 0.0316 µM): > 10000 nM
- IC50 (second compound 0.1 µM): > 10000 nM
- IC50 (second compound 0.316 µM): > 10000 nM
- IC50 (second compound 1 µM): > 10000 nM
- IC50 (second compound 3.16 µM): > 10000 nM
- IC50 (second compound 10 µM): > 10000 nM
- viability, T/C [1]: 100%
- viability, T/C [13]: 92.5%
- viability, T/C [2]: 103%
- viability, T/C [14]: 106%
- viability, T/C [15]: 96.7%
- viability, T/C [16]: 76.8%
- viability, T/C [3]: 109%
- viability, T/C [17]: 104%
- viability, T/C [4]: 90.9%
- viability, T/C [18]: 102%
- viability, T/C [19]: 93.9%
- viability, T/C [20]: 75.8%
- viability, T/C [5]: 88.1%
- viability, T/C [21]: 105%
- viability, T/C [6]: 99.6%
- viability, T/C [22]: 104%
- viability, T/C [23]: 98.5%
- viability, T/C [24]: 71.3%
- viability, T/C [7]: 99.9%
- viability, T/C [25]: 86.8%
- viability, T/C [8]: 100%
- viability, T/C [26]: 90.5%
- viability, T/C [27]: 91.8%
- viability, T/C [28]: 68.5%
- viability, T/C [9]: 87.5%
- viability, T/C [29]: 94.2%
- viability, T/C [10]: 80.8%
- viability, T/C [30]: 77.4%
- viability, T/C [31]: 83.5%
- viability, T/C [32]: 63.1%
- viability, T/C [11]: 88%
- viability, T/C [33]: 87.8%
- viability, T/C [12]: 80.8%
- viability, T/C [34]: 74.4%
- viability, T/C [35]: 80.6%
- viability, T/C [36]: 64.3%
